Test results as given in patent US20140220135A1, “PERMEATION ENHANCED ACTIVE-CARRYING NANOPARTICLES” (Midatech Limited, priority 2013, published 2014).
“Also recorded” adds a separate entry of the source.

Tests used:
[1] = Glucose clearance in somatostatin-infused minipigs after glucose bolus; format: in vivo; conditions: transbuccal strips of NP-insulin, μg DoD/strip, period of 40 to 60 minutes, FIG. 8
Procedure: Minipigs were infused with somatostatin in order to suppress endogenous insulin secretion. They were then given a bolus injection of 0.33 gm/kg glucose. After thirty minutes the test item was given and the first order rate constant for glucose clearance (k) was calculated for the period of 40 to 60 minutes.
Test items included: 1. Strips containing 4 U insulin on nanoparticle applied transbuccal; 2. Strips containing 4 U insulin on nanoparticle dodecyl-β-D-maltoside applied transbuccal; 3. Subcutaneous (s.c.) nanoparticle-insulin (NP-insulin); 4. S.C. commercial Humalog® insulin.

[2] = tested on: insulin-carrying gold nanoparticles ("GNPI"); experiment: Insulin release from insulin-carrying gold nanoparticles incubated with permeation enhancer, BCA protein assay of supernatant; format: physicochemical
Procedure: […] Samples were mixed and left at RT for 1 h, they were then spun for 2 min at 18000 g and 10 μl of each supernatant was measured by BCA protein assay to determine insulin release, a blank and a positive control in which no TDM was added and the sample was not spun were also included.
The sample tubes were vortexed and left at RT for a further 95 h (for a total of 96 hours) and re-assayed as above to see if there was any further indication of insulin release.
In a follow on experiment lysalbinic acid (LAA) was also tested as an alternative potential permeation enhancer, the same protocol was used as for TDM above.

Compound | first order rate constant for glucose clearance (k) against dosage of DoD [1] | insulin release by TDM over 0 TDM control ([2]; 1 h at RT in water, 2.5-67.5 μg TDM in 0.5 ml, FIG. 2) | further insulin release after a total of 96 hours ([2]; 96 h at RT in water, FIG. 3) | loss of bound active from active-carrying nanoparticle ([2]; 96 hours of incubation in solution) | percentage of insulin released against percentage of permeation enhancer ([2]; insulin level of 75 U/ml, FIG. 5 and FIG. 6) | effect on insulin release from GNPI (overall conclusion) ([2]; range of concentrations, in water, short or medium term)
CCCCCCCCCCCCO[C@@H]1O[C@H](CO)[C@@H](O[C@H]2O[C@H](CO)[C@@H](O)[C@H](O)[C@H]2O)[C@H](O)[C@H]1O [DoD, dodecyl-β-D-maltoside] | apparent dose-dependence; also recorded: clear dose-dependence |  |  |  |  | 
CCCCCCCCCCCCCCO[C@@H]1O[C@H](CO)[C@@H](O[C@H]2O[C@H](CO)[C@@H](O)[C@H](O)[C@H]2O)[C@H](O)[C@H]1O [TDM, tetradecyl-D-maltoside] |  | less than 5% | no further release | without significant loss of bound active | lack of effect | no gross effect
